From patent US7550467B2 (Schering Corporation, priority 2004, dated 2009)

Target: T1, MCH receptor (Homo sapiens, UniProt Q99705)
T1 construct: expressed in transfected cells; host or cells: CHO cells
Test: MCH Receptor Binding Assay ([125I]-MCH, SPA beads, membranes from CHO cells expressing the MCH receptor)
Protocol: MCH Receptor Binding Assay:
Membranes from CHO cells expressing the MCH receptor were prepared by lysing cells with 5 mM HEPES for 15 minutes at 4° C. Cell lysates were centrifuged ([…], 15 minutes) and the pellet was resuspended in 5 mM HEPES. For each 96-well plate (Microlite, Dynex Technologies), 1 mg of cell membranes were incubated with 10 mg of wheat germ agglutinin SPA beads (Amersham) for 5 minutes at 4° C. in a volume of 10 ml of binding buffer (25 mM HEPES, 10 mM MGCl2, 10 mM NaCl, 5 mM MnCl2, 0.1% BSA). The membrane/bead mixture was centrifuged (1500×g, 3.5 min), the supernatant was aspirated, and the pellet was resuspended in 10 ml binding buffer. The centrifugation, aspiration and resuspension were then repeated. The membrane/bead mixture (100 μl) was then added to 96-well plates containing 50 μl of 500 pM [^125I]-MCH (NEN) and […] of the appropriate concentration of compound (4X the desired final concentration). Nonspecific binding was determined by including 1 μM MCH in the binding reaction. The binding reaction was incubated at room temperature for 2 hours. Plates were then analyzed in a TOPCOUNT microplate scintillation counter (Packard). Data was analyzed and Ki values were determined using GraphPad Prism.

T1 sequence (Q99705 whole entry): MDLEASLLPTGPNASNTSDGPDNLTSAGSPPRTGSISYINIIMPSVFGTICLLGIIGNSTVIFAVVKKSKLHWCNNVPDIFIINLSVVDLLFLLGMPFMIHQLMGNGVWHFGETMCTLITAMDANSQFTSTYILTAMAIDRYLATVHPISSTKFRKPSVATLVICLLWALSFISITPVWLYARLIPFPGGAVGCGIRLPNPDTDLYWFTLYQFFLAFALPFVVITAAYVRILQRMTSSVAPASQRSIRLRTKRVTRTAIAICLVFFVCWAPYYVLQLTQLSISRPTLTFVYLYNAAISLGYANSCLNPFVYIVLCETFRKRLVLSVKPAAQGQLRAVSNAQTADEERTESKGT

SMILES | Ki (Ki rating (class)) [nM] | Ki ([125I]-MCH) [nM]
CN1CCN(CCCN(C(=O)Nc2ccc(F)c(Cl)c2)C2CCc3ccc(N)cc3C2)CC1 (centres unmarked) | < 1000 | –
CN1CCN(CCCN(C(=O)Nc2ccc(F)c(Cl)c2)C2CCc3ccc(S(C)(=O)=O)cc3C2)CC1 (centres unmarked) | 1000 to 2000 | –
CC(=O)Nc1ccc2c(c1)CC(N(CCCN1CCN(C)CC1)C(=O)Nc1ccc(F)c(Cl)c1)CC2 (centres unmarked) [Compound I, N-(7-{3-(3-chloro-4-fluoro-phenyl)-1-[3-(4methyl-piperazin-1-yl)-propyl]-ureido}-5,6,7,8-tetrahydro-naphthalen-2yl)-acetamide] | < 1000 | 6
CN1CCN(CCCN(C(=O)Nc2ccc(F)c(Cl)c2)C2CCc3ccc([N+](=O)[O-])cc3C2)CC1 (centres unmarked) [Compound II, 3-(3-chloro-4-fluoro-phenyl)-1-[3-(4-methyl-piperazin-1-yl)-propyl]-1-(7-nitro-1,2,3,4-tetrahydro-naphthalen-2-yl)-urea] | < 1000 | 11
CN1CCN(CCCN(C(=O)Nc2ccc(F)c(Cl)c2)C2CCc3ccc(C#N)cc3C2)CC1 (centres unmarked) [Compound III, 3-(3-chloro-4-fluoro-phenyl)-1-(7-cyano-1,2,3,4-tetrahydro-naphthalen-2-yl)-1-[3-(4-methyl-piperazin-1-yl)-propyl]-urea] | < 1000 | 14
CC(C)C(=O)Nc1ccc2c(c1)CC(N(CCCN1CCN(C)CC1)C(=O)Nc1ccc(F)c(Cl)c1)CC2 (centres unmarked) [Compound IV, N-(7-{3-(3-chloro-4-fluoro-phenyl)-1-[3-(4-methyl-piperazin-1-yl)-propyl]-ureido}-5,6,7,8-tetrahydro-naphthalen-2-yl)-isobuty ramide] | < 1000 | 61
CCNC(=O)Nc1ccc2c(c1)CC(N(CCCN1CCN(C)CC1)C(=O)Nc1ccc(F)c(Cl)c1)CC2 (centres unmarked) [Compound IX, 1-(7-{3-(3-chloro-4-fluoro-phenyl)-1-[3-(4-methyl-piperazin-1-yl)-propyl]-ureido}-5,6,7,8-tetrahydro-naphthalen-2-yl)-3-ethyl-urea] | < 1000 | 157
CN1CCN(CCCN(C(=O)Nc2cc(Cl)nc(Cl)c2)C2CCc3cc(C#N)ccc3C2)CC1 (centres unmarked) [Compound VI, 3-(2,6-dichloro-pyridin-4-yl)-1-(6-cyano-1,2,3,4-tetrahydro-naphthalen-2-yl)-1-[3-(4-methyl-piperazin-1-yl)-propyl]-urea] | < 1000 | 65
COc1ccc2c(c1)CC(N(CCCN1CCN(C)CC1)C(=O)Nc1ccc(F)c(Cl)c1)CC2 (centres unmarked) [Compound VII, 3-(3-chloro-4-fluoro-phenyl)-1-(7-methoxy-1,2,3,4-tetrahydro-naphthalen-2-yl)-1-[3-(4-methyl-piperazin-1-yl)-propyl]-urea] | < 1000 | 92
CN1CCN(CCCN(C(=O)Nc2ccc(F)c(Cl)c2)C2CCc3ccc(NS(C)(=O)=O)cc3C2)CC1 (centres unmarked) [Compound VIII, N-(7-{3-(3-chloro-4-fluoro-phenyl)-1-[3-(4-methyl-piperazin-1-yl)-propyl]-ureido}-5,6,7,8-tetrahydro-naphthalen-2-yl)-methanesulfonamide] | < 1000 | 96
C[C@@H]1CN[C@@H](C)CN1CCCN(C(=O)Nc1cc(Cl)nc(Cl)c1)C1COc2ccc(Br)cc2C1 (some centres unmarked) [Compound V] | < 1000 | 63
CN1CCN(CCCN(C(=O)Nc2ccc(F)c(Cl)c2)C2CCc3cc(Br)ccc3C2)CC1 (centres unmarked) [Compound X, 1-(6-bromo-1,2,3,4-tetrahydro-naphthalen-2-yl)-3-(3-chloro-4-fluoro-phenyl)-1-[3-(4-methyl-piperazin-1-yl)-propyl]-urea] | < 1000 | 178
COc1ccc2c(c1)CCC(N(CCCN1CCN(C)CC1)C(=O)Nc1ccc(F)c(Cl)c1)C2 (centres unmarked) [Compound XII, 3-(3-chloro-4-fluoro-phenyl)-1-(6-methoxy-1,2,3,4-tetrahydro-naphthalen-2-yl)-1-[3-(4-methyl-piperazin-1-yl)-propyl]-urea] | < 1000 | –
CN1CCN(CCCN(C(=O)Nc2cc(Cl)nc(Cl)c2)C2CCc3ccc(S(C)(=O)=O)cc3C2)CC1 (centres unmarked) [Compound XIII, 3-(2,6-dichloro-pyridin-4-yl)-1-(7-methanesulfonyl-1,2,3,4-tetrahydro-naphthalen-2-yl)-1-[3-(4-methyl-piperazin-1-yl)-propyl]-urea] | < 1000 | –
CN1CCN(CCCN(C(=O)Nc2ccc(F)c(Cl)c2)C2Cc3ccccc3C2)CC1 [Compound XIX, 3-(3-chloro-4-fluoro-phenyl)-1-indan-2-yl-1-[3-(4-methyl-piperazin-1-yl)-propyl]-urea] | < 1000 | –
C[C@@H]1CN(CCCN(C(=O)Nc2cc(Cl)nc(Cl)c2)C2COc3ccc(Br)cc3C2)[C@@H](C)CN1 (some centres unmarked) [Compound XI] | < 1000 | –
CN1CCN(CCCN(C(=O)Nc2ccc(F)c(Cl)c2)C2CCc3cc(C#N)ccc3C2)CC1 (centres unmarked) [Compound XVI, 3-(3-chloro-4-fluoro-phenyl)-1-(6-cyano-1,2,3,4-tetrahydro-naphthalen-2-yl)-1-[3-(4-methyl-piperazin-1-yl)-propyl]-urea] | < 1000 | –
CN1CCN(CCCN(C(=O)Nc2ccc(F)c(Cl)c2)C2CCc3ccccc3C2)CC1 (centres unmarked) [Compound XVII, 3-(3-chloro-4-fluoro-phenyl)-1-[3-(4-methyl-piperazin-1-yl)-propyl]-1-(1,2,3,4-tetrahydro-naphthalen-2-yl)-urea] | < 1000 | –

More lines, now with the values ahead:

Ki (Ki rating (class)) [nM] | Ki ([125I]-MCH) [nM] | SMILES
< 1000 | – | C[C@@H]1CN[C@@H](C)CN1CCCN(C(=O)Nc1ccc(F)c(Cl)c1)C1COc2ccc(Br)cc2C1 (stereo partly drawn) [Compound XVIII, (2R,5S)-1-(6-bromo-chroman-3-yl)-3-(3-chloro-4-fluoro-phenyl)-1-[3-(2,5-dimethyi-piperazin-1-yl)-propyl]-urea]
< 1000 | – | C[C@@H]1CN(C(=O)OC(C)(C)C)[C@@H](C)CN1CCCN(C(=O)Nc1cc(Cl)nc(Cl)c1)C1COc2ccc(Br)cc2C1 (some centres unmarked) [Compound XV]
< 1000 | – | COc1cc2c(cc1OC)CC(N(CCCN1CCN(C)CC1)C(=O)Nc1cc(Cl)nc(Cl)c1)CC2 (centres unmarked) [Compound XX, 3-(2,6-dichloro-pyridin-4-yl)-1-(6,7-dimethoxy-1,2,3,4-tetrahydro-naphthalen-2-yl)-1-[3-(4-methyl-piperazin-1-yl)-propyl]-urea]
< 1000 | – | CNS(=O)(=O)c1ccc2c(c1)CC(N(CCCN1CCN(C)CC1)C(=O)Nc1cc(Cl)nc(Cl)c1)CC2 (centres unmarked) [Compound XXII, 7-{3-(2,6-dichloro-pyridin-4-yl)-1-[3-(4-methyl-piperazin-1-yl)-propyl]-ureido}-5,6,7,8-tetrahydro-naphthalene-2-sulfonic acid methylamide]
< 1000 | – | C[C@@H]1CN(CCCN(C(=O)Nc2ccc(F)c(Cl)c2)C2COc3ccc(Br)cc3C2)[C@@H](C)CN1 (some centres unmarked) [Compound XXI]
1000 to 2000 | – | C[C@@H]1CN(C(=O)OC(C)(C)C)[C@@H](C)CN1CCCN(C(=O)Nc1ccc(F)c(Cl)c1)C1COc2ccc(Br)cc2C1 (stereo partly drawn) [Compound XXV, (2S,5R)-4-{3-[1-(6-bromo-chroman-3-yl)-3-(3-chloro-4-fluoro-phenyl)-ureido]-propyl}-2,5-dimethyl-piperazine-1-carboxylic acid tert-butyl ester]
1000 to 2000 | – | CNS(=O)(=O)c1ccc2c(c1)CC(N(CCCN1CCN(C)CC1)C(=O)Nc1ccc(F)c(C(F)(F)F)c1)CC2 (centres unmarked) [Compound XXVII, 7-{3-(4-fluoro-3-trifluoromethyl-phenyl)-1-[3-(4-methyl-piperazin-1-yl)-propyl]-ureido}-5,6,7,8-tetrahydro-naphthalene-2-sulfonic acid methylamide]
> 2000 | – | COc1cc2c(cc1OC)CC(N(CCCN1CCN(C)CC1)C(=O)Nc1ccc(F)c(Cl)c1)CC2 (centres unmarked) [Compound XXVIII, 3-(3-chloro-4-fluoro-phenyl)-1-(6,7-dimethoxy-1,2,3,4-tetrahydro-naphthalen-2-yl)-1-[3-(4-methyl-piperazin-1-yl)-propyl]-urea]
1000 to 2000 | – | C[C@@H]1CN(CCCN(C(=O)Nc2ccc(F)c(Cl)c2)C2COc3ccc(Br)cc3C2)[C@@H](C)CN1C(=O)OC(C)(C)C (some centres unmarked) [Compound XXVI]
> 2000 | – | CN1CCN(CCCN(C(=O)Nc2ccc(F)c(Cl)c2)C2CCc3ccc(S(=O)(=O)N(C)C)cc3C2)CC1 (centres unmarked) [Compound XXX, 7-{3-(3-chloro-4-fluoro-phenyl)-1-[3-(4-methyl-piperazin-1-yl).-propyl]-ureido}-5,6,7,8-tetrahydro-naphthalene-2-sulfonic acid dimethylamide]
> 2000 | – | CN1CCN(CCCN(C(=O)Nc2ccc(F)c(C(F)(F)F)c2)C2CCc3ccc(S(=O)(=O)N(C)C)cc3C2)CC1 (centres unmarked) [Compound XXXI, 7-{3-(4-fluoro-3-trifluoromethyl-phenyl)-1-[3-(4-methyl-piperazin-1-yl)-propyl]-ureido}-5,6,7,8-tetrahydro-naphthalene-2-sulfonic acid dimethylamide]
> 2000 | – | CN1CCN(CCCN(C(=O)Nc2cc(Cl)nc(Cl)c2)C2CCc3ccc(S(=O)(=O)N(C)C)cc3C2)CC1 (centres unmarked) [Compound XXXII]
1000 to 2000 | – | C[C@@H]1CN(CCCN(C(=O)Nc2cc(Cl)nc(Cl)c2)C2COc3ccc(Br)cc3C2)[C@@H](C)CN1C(=O)OC(C)(C)C (some centres unmarked) [XXIII]
